Source: publication PMC8267177, “Cyclic Peptoid-Peptide Hybrids as Versatile Molecular Transporters” (Frontiers in Chemistry, 2021)
“Also recorded” adds a separate entry of the source. Non-standard residues stand in square brackets, D forms with d. Residues, ends and D or L forms follow the SMILES beside them. *: point of attachment. RhodamineB = CCN(CC)c1ccc2c(-c3ccccc3C(=O)*)c3ccc(=[N+](CC)CC)cc-3oc2c1; Gly(Nα-4-Cl-benzyl) = O=C(O)CNCc1ccc(Cl)cc1; Nphe = O=C(O)CNCc1ccccc1; NBuGly = CCCCNCC(=O)O; Nlys = NCCCCNCC(=O)O

How the values were obtained:
in vitro = assay type: cell-based; conditions: human
Protocol: The cytotoxicity of the macrocyclic hybrids 15–24, as well as their conjugates 15-Rhod to 24-Rhod, was examined using a standard MTT assay in human epithelial cervix carcinoma (HeLa) cells. […] ([Mosmann, 1983]; [Tolosa et al., 2015]) After treatment of HeLa cells with different concentrations of the respective macrocycles 15–24 (0.50─50 µM) for 72 h, no significant cytotoxic effects were observed. […] As shown by many research groups that Rhodamine B by itself is not efficiently entering the cells showing therefore an LD50 > 50 μM, we assume that this the toxicity of the Rhodamine moiety might be higher when increasingly localizing in the mitochondria to a higher amount.
In a 96-well plate (Corning® Costar® 3596 96-Well Cell Culture Cluster), 1.0 × 10^4 HeLa-cells per well of a 96 well plate were cultivated for 16 h. Stock solutions of the single compounds in dimethylsulfoxide were diluted to 0.50 µm, 5.00 µm, and 50.0 µm with cell culture medium (DMEM + 10% FBS + 1% P/S) to ensure a final concentration of DMSO below 0.5%. 100 µL of the prepared DMEM diluted compounds were added to each well and the cells were incubated for 72 h. All experiments were performed in triplicates. Cells that were solely treated with the culture medium containing 0.5% of DMSO served as a negative control. After incubation, the positive control (cells in DMSO plus 0.5% DMSO) was treated with 1% Triton-X. To determine the viability of the cells 20 µL of a freshly prepared solution of 3-(4,5-dimethylthiazol-2-yl)-2,5-diphenyltetrazolium bromide (MTT, 2.73 mg/mL, Sigma-Aldrich®) in culture medium were added to each well and incubated at 37 °C for 4 h. The reaction was stopped using 100 µL of Solubilization Solution / Stop Mix (CellTiter 96® Non-Radioactive Cell Proliferation Assay, Promega). After 24 h, the absorption (A) of every well at 595 nm was monitored using a 96-well plate reader (Ultra Microplate Reader ELx808, Biotech Instruments Inc.).

HeLa cells = experiment: Localization assay: cellular uptake and organellar localization by confocal microscopy; assay type: cell-based, human; conditions: 5 µM, 5 h, 37 °C; for Cellular uptake efficiency: confocal microscopy of Rhodamine B fluorescence (Exc 532 nm, Em 570–620 nm); for Organellar localization (mitochondria): counterstaining with MitoTracker Green, confocal microscopy
Protocol: As 15-Rhod to 24-Rhod were not toxic at 5 µM the following transport experiments were carried out using this concentration. To study their cellular uptake and organellar localization, HeLa cells were treated with 5 µM of the cyclic conjugates 15-Rhod to 24-Rhod for 5 h and eventually imaged using confocal microscopy (for experimental details, see supplemental Material).
FIGURE 4 Localization of the macrocyclic conjugates 15-Rhod to 24-Rhod in HeLa cells. After incubation with a 5.0 µM solution of the respective transporters for 5 h, the cellular uptake was monitored via fluorescent confocal microscopy (Rhodamine B labeled hybrids: λ Exc = 532 nm, λ Em = 570–620 nm; MitoTracker® Green: λ Exc = 488 nm, λ Em = 490–540 nm; Hoechst 33,342: λ Exc = 405 nm, λ Em = 430–490 nm). Counterstaining with MitoTracker® Green visualized mitochondria (green). Staining with 2 μg/ml Hoechst 33,342 indicated nuclei (blue). Scale bar: 10 µm.
In an 8-well chamber slide (µ-Slide 8-Well ibidiTreat, ibidi®), 1.0 × 10^4 HeLa cells per well were cultivated for 16 h. The cyclic hybrids were diluted with DMEM to yield a 5 µM concentration. The cells were treated with the hybrids for 5 h at 37 °C. To monitor the intracellular localization, the cells were counterstained with MitoTracker® (Invitrogen) and 2 µg/mL Hoechst 33342. After washing with DPBS (3 ×), the luminescence was monitored via life-cell imaging using a Leica TCS-SPE confocal microscope (DM2500 inverse microscope, 8 Bit resolution, 1024 × 1024 pixels), equipped with a 1 Airy pinhole aperture (111.5 µm), ACS APO 63.0x/1.30 OIL UV and 40x/1.14 OIL UV objectives and the images were processed by the Leica Application Suite (LAS-AF) Version 2.1.2 build 4530 software. Images were taken with a scanning frequency of 400 Hz. Background noise was averaged by an eight-fold repetition of the scan process. The cyclic hybrids were excited at 532 nm, MitoTracker® Green at 488 nm, and Hoechst 33342 at 405 nm. The exposure was set to minimize oversaturated pixels in the final images. Fluorescence emission was measured at 570–620 nm for the detection of rhodamine B labeled hybrids, at 490–540 nm for the detection of mitochondria, and 430–490 nm for the detection of nuclei.

Row | IC50 at 72 h (in vitro) [µM] | SMILES | Cellular uptake efficiency (HeLa cells) | Organellar localization (mitochondria) (HeLa cells)
1 | > 50 | NCCCC[C@@H]1NC(=O)CN(Cc2ccc(Cl)cc2)C(=O)CN(Cc2ccc(Cl)cc2)C(=O)[C@H](Cc2c[nH]c3ccccc23)NC1=O [compound 20, cyclo-(l-Trp-N1ph^pCl-N1ph^pCl-l-Lys)] (cyclo([Gly(Nα-4-Cl-benzyl)][Gly(Nα-4-Cl-benzyl)]KW)) |  | 
2 | > 50 | CCCCN1CC(=O)N[C@@H](CCCCN)C(=O)N[C@@H](Cc2ccc(O)cc2)C(=O)N(CCCC)CC1=O [compound 21, cyclo-(l-Tyr-N3m-N3m-l-Lys)] (cyclo(KY[NBuGly][NBuGly])) |  | 
3 | > 50 | CCCCN1CC(=O)N(Cc2ccccc2)CC(=O)N(CCCCNC(=O)c2ccccc2-c2c3ccc(=[N+](CC)CC)cc-3oc3cc(N(CC)CC)ccc23)CC(=O)N[C@@H](Cc2ccccc2)C1=O [17-Rhod, cyclo-(l-Phe-N3m-N1ph-N4am(Rhod))] (cyclo(F[NBuGly][Nphe][Nlys](RhodamineB))) |  | 
4 | 6 | CCN(CC)c1ccc2c(-c3ccccc3C(=O)NCCCCN3CC(=O)N(Cc4ccc(Cl)cc4)CC(=O)N(Cc4ccc(Cl)cc4)CC(=O)N(Cc4ccc(Cl)cc4)CC(=O)N[C@@H](Cc4ccccc4)C(=O)N[C@@H](Cc4ccccc4)C3=O)c3ccc(=[N+](CC)CC)cc-3oc2c1 [23-Rhod, cyclo-(l-Phe-N1ph^pCl-N1ph^pCl-N1ph^pCl-N4am(Rhod)-l-Phe)] (cyclo(F[Nlys](RhodamineB)[Gly(Nα-4-Cl-benzyl)][Gly(Nα-4-Cl-benzyl)][Gly(Nα-4-Cl-benzyl)]F)) | significantly less efficient | Mitochondrial accumulation
5 | > 50 | CCN(CC)c1ccc2c(-c3ccccc3C(=O)NCCCC[C@@H]3NC(=O)CN(Cc4ccc(Cl)cc4)C(=O)CN(Cc4ccc(Cl)cc4)C(=O)[C@H](Cc4c[nH]c5ccccc45)NC3=O)c3ccc(=[N+](CC)CC)cc-3oc2c1 [20-Rhod, cyclo-(l-Trp-N1ph^pCl-N1ph^pCl-l-Lys(Rhod))] (cyclo([Gly(Nα-4-Cl-benzyl)][Gly(Nα-4-Cl-benzyl)]K(RhodamineB)W)) |  | 
6 | > 50 | NCCCCN1CC(=O)N(Cc2ccccc2)CC(=O)N[C@@H](Cc2ccccc2)C(=O)N(Cc2ccc(Cl)cc2)CC1=O [compound 16, cyclo-(l-Phe-N1ph^pCl-N4am-N1ph)] (cyclo(F[Gly(Nα-4-Cl-benzyl)][Nlys][Nphe])) |  | 
7 | 26 | CCCCN1CC(=O)N[C@@H](Cc2ccccc2)C(=O)N[C@@H](Cc2ccccc2)C(=O)N(CCCCNC(=O)c2ccccc2-c2c3ccc(=[N+](CC)CC)cc-3oc3cc(N(CC)CC)ccc23)CC(=O)N(Cc2ccccc2)CC(=O)N(CCCC)CC1=O [24-Rhod, cyclo-(l-Phe-N3m-N3m-N1ph-N4am(Rhod)-l-Phe)] (cyclo(F[Nlys](RhodamineB)[Nphe][NBuGly][NBuGly]F)) | efficiently taken up; also recorded: high cellular uptake efficiency | mitochondrial specificity
8 | 30 | CCN(CC)c1ccc2c(-c3ccccc3C(=O)NCCCCN3CC(=O)N(Cc4ccccc4)CC(=O)N[C@@H](Cc4ccccc4)C(=O)N(Cc4ccc(Cl)cc4)CC3=O)c3ccc(=[N+](CC)CC)cc-3oc2c1 [16-Rhod, cyclo-(l-Phe-N1ph^pCl-N4am(Rhod)-N1ph)] (cyclo(F[Gly(Nα-4-Cl-benzyl)][Nlys](RhodamineB)[Nphe])) |  | 
9 | > 50 | CCN(CC)c1ccc2c(-c3ccccc3C(=O)NCCCCN3CC(=O)N[C@@H](Cc4ccccc4)C(=O)N(Cc4ccccc4)CC(=O)N(Cc4ccccc4)CC3=O)c3ccc(=[N+](CC)CC)cc-3oc2c1 [15-Rhod, cyclo-(l-Phe-N1ph-N1ph-N4am(Rhod))] (cyclo(F[Nphe][Nphe][Nlys](RhodamineB))) |  | 
10 | > 50 | NCCCC[C@@H]1NC(=O)CN(Cc2ccccc2)C(=O)CN(Cc2ccccc2)C(=O)[C@H](Cc2c[nH]c3ccccc23)NC1=O [compound 19, cyclo-(l-Trp-N1ph-N1ph-l-Lys)] (cyclo(KW[Nphe][Nphe])) |  | 
11 | > 50 | CCCCN1CC(=O)N(Cc2ccccc2)CC(=O)N(CCCCN)CC(=O)N[C@@H](Cc2ccccc2)C(=O)N[C@@H](Cc2ccccc2)C(=O)N(CCCC)CC1=O [compound 24, cyclo-(l-Phe-N3m-N3m-N1ph-N4am-l-Phe)] (cyclo(FF[NBuGly][NBuGly][Nphe][Nlys])) |  | 
12 | 20 | NCCCCN1CC(=O)N[C@@H](Cc2ccccc2)C(=O)N[C@@H](Cc2ccccc2)C(=O)N(Cc2ccc(Cl)cc2)CC(=O)N(Cc2ccc(Cl)cc2)CC(=O)N(Cc2ccc(Cl)cc2)CC1=O [compound 23, cyclo-(l-Phe-N1ph^pCl-N1ph^pCl-N1ph^pCl-N4am-l-Phe)] (cyclo(FF[Gly(Nα-4-Cl-benzyl)][Gly(Nα-4-Cl-benzyl)][Gly(Nα-4-Cl-benzyl)][Nlys])) |  | 
13 | > 50 | NCCCCN1CC(=O)N(Cc2ccccc2)CC(=O)N[C@@H](Cc2ccc(O)cc2)C(=O)N[C@@H](Cc2ccccc2)C1=O [compound 18, cyclo-(l-Phe-N4am-N1ph-l-Tyr)] (cyclo(F[Nlys][Nphe]Y)) |  | 
14 | > 50 | NCCCCN1CC(=O)N[C@@H](Cc2ccccc2)C(=O)N[C@@H](Cc2ccccc2)C(=O)N(Cc2ccccc2)CC(=O)N(Cc2ccccc2)CC(=O)N(Cc2ccccc2)CC1=O [compound 22, cyclo-(l-Phe-N1ph-N1ph-N1ph-N4am-l-Phe)] (cyclo(FF[Nphe][Nphe][Nphe][Nlys])) |  | 
15 | > 50 | NCCCCN1CC(=O)N[C@@H](Cc2ccccc2)C(=O)N(Cc2ccccc2)CC(=O)N(Cc2ccccc2)CC1=O [compound 15, cyclo-(l-Phe-N1ph-N1ph-N4am)] (cyclo(F[Nphe][Nphe][Nlys])) |  | 
16 | 36 | CCCCN1CC(=O)N[C@@H](CCCCNC(=O)c2ccccc2-c2c3ccc(=[N+](CC)CC)cc-3oc3cc(N(CC)CC)ccc23)C(=O)N[C@@H](Cc2ccc(O)cc2)C(=O)N(CCCC)CC1=O [21-Rhod, cyclo-(l-Tyr-N3m-N3m-l-Lys(Rhod))] (cyclo(K(RhodamineB)Y[NBuGly][NBuGly])) |  | 
17 | 34 | CCN(CC)c1ccc2c(-c3ccccc3C(=O)NCCCC[C@@H]3NC(=O)CN(Cc4ccccc4)C(=O)CN(Cc4ccccc4)C(=O)[C@H](Cc4c[nH]c5ccccc45)NC3=O)c3ccc(=[N+](CC)CC)cc-3oc2c1 [19-Rhod, cyclo-(l-Trp-N1ph-N1ph-l-Lys(Rhod))] (cyclo(K(RhodamineB)W[Nphe][Nphe])) |  | 
18 | > 50 | CCCCN1CC(=O)N(Cc2ccccc2)CC(=O)N(CCCCN)CC(=O)N[C@@H](Cc2ccccc2)C1=O [compound 17, cyclo-(l-Phe-N3m-N1ph-N4am)] (cyclo(F[NBuGly][Nphe][Nlys])) |  | 
19 | 33 | CCN(CC)c1ccc2c(-c3ccccc3C(=O)NCCCCN3CC(=O)N[C@@H](Cc4ccc(O)cc4)C(=O)N[C@@H](Cc4ccccc4)C(=O)N(Cc4ccccc4)CC3=O)c3ccc(=[N+](CC)CC)cc-3oc2c1 [18-Rhod, cyclo-(l-Phe-N4am(Rhod)-N1ph-l-Tyr)] (cyclo(F[Nphe][Nlys](RhodamineB)Y)) | not internalized | 
